In brackets after ≈: the same amount, converted by molar mass.
Tests used:
Type in all cases: cell-based
M. kansasii (ATCC 12478) = assay: MIC against M. kansasii in CAMHB + ADC; details: Mycobacterium kansasii, ATCC12478; ATCC 12478; CAMHB + ADC (5%); read-out: MIC M. kansasii
M. avium (ATCC 25291) = assay: MIC against M. avium in CAMHB + ADC; details: Mycobacterium avium, ATCC25291; ATCC 25291; CAMHB + ADC (5%); read-out: MIC M. avium
[1] = test system: S. aureus (UAMS-1625 strain); assay: MIC by broth microdilution against S. aureus; details: Staphylococcus aureus, read-out: MIC S. aureus
[2] = test system: M. abscessus subsp. abscessus CCUG 71382; assay: MIC against M. abscessus isolate in CAMHB; details: Mycobacteroides abscessus, CCUG71382
[3] = test system: A. baumannii (HUMC1 strain); assay: MIC by broth microdilution against A. baumannii in RPMI + 10% FCS; details: Acinetobacter baumannii; HUMC1 strain; RPMI + 10% FCS; read-out: MIC A. baumannii
M. xenopi (ATCC 19250) = assay: MIC against M. xenopi in CAMHB + ADC; details: Mycobacterium xenopi, ATCC19250; ATCC 19250; CAMHB + ADC (5%); read-out: MIC M. xenopi
[4] = test system: M. abscessus subsp. massiliense CCUG 48898; assay: MIC against M. abscessus isolate in CAMHB; details: Mycobacteroides abscessus, CCUG48898
[5] = test system: M. abscessus subsp. bolletii CCUG 50184; assay: MIC against M. abscessus isolate in CAMHB; details: Mycobacteroides abscessus, CCUG50184
[6] = test system: M. abscessus subsp. abscessus ATCC 19977; assay: MIC against M. abscessus isolate in CAMHB; details: Mycobacteroides abscessus, ATCC19977
[7] = test system: M. abscessus subsp. abscessus CCUG 71636; assay: MIC against M. abscessus isolate in CAMHB; details: Mycobacteroides abscessus, CCUG71636; read-out: M. abscessus MIC in CAMHB, abscessus CCUG 71636
[8] = test system: M. abscessus subsp. abscessus ATCC 19977; assay: MIC against M. abscessus in Middlebrook 7H9 + ADC; details: Mycobacteroides abscessus, ATCC19977
A. baumannii Arr-2 = assay: microbe, parasite or virus in culture; details: Acinetobacter baumannii, ARR2, read-out: A. baumannii MIC in RPMI + FCS, Arr-2
[9] = test system: Enterococcus faecalis (strain ATCC 51575); assay: MIC against E. faecalis; details: Enterococcus faecalis, ATCC51575, CAMHB
[10] = test system: A. baumannii RpoB H535C mutant; assay: microbe, parasite or virus in culture; details: Acinetobacter baumannii, RPOBH535CMUTANT, read-out: A. baumannii MIC in RPMI + FCS, RpoB H535C
[11] = test system: M. abscessus subsp. massiliense CCUG 48898; assay: MIC against M. abscessus isolate in 7H9 + ADC; details: Mycobacteroides abscessus, CCUG48898
[12] = test system: A. baumannii RpoB H535Q mutant; assay: microbe, parasite or virus in culture; details: Acinetobacter baumannii, RPOBH535QMUTANT, read-out: A. baumannii MIC in RPMI + FCS, RpoB H535Q
[13] = test system: A. baumannii RpoB H535L mutant; assay: microbe, parasite or virus in culture; details: Acinetobacter baumannii, RPOBH535LMUTANT, read-out: A. baumannii MIC in RPMI + FCS, RpoB H535L
M. abscessus strains = assay: MIC over the five tested M. abscessus strains in 7H9 + ADC; details: Mycobacteroides abscessus, span over five isolates, read-out: MIC values against the tested M. abscessus strains
[14] = test system: A. baumannii wild type (WT); assay: MIC against A. baumannii isolate in RPMI + FCS
[15] = test system: Enterococcus faecium (strain NCTC 12204); assay: MIC against E. faecium; details: Enterococcus faecium, NCTC12204, read-out: MIC E. faecium
[16] = test system: Hemophilus influenzae (strain ATCC 49247); assay: MIC against H. influenzae; details: Haemophilus influenzae, ATCC49247, Hemophilus test medium broth
[17] = test system: M. abscessus subsp. abscessus CCUG 71382; assay: MIC against M. abscessus isolate in 7H9 + ADC; details: Mycobacteroides abscessus, CCUG71382
[18] = test system: M. abscessus subsp. abscessus CCUG 71636; assay: MIC against M. abscessus isolate in 7H9 + ADC; details: Mycobacteroides abscessus, CCUG71636
[19] = test system: M. abscessus subsp. bolletii CCUG 50184; assay: MIC against M. abscessus isolate in 7H9 + ADC; details: Mycobacteroides abscessus, CCUG50184
[20] = test system: Staphylococcus epidermidis (strain ATCC 12228); assay: MIC against S. epidermidis; details: Staphylococcus epidermidis, ATCC12228, CAMHB
[21] = test system: A. baumannii with Arr-mediated and RpoB mutation-mediated resistance
[22] = ATCC 19977, 7H9 + ADC, read-out: MIC M. abscessus

CO[C@H]1/C=C/OC2(C)Oc3c(C)c(O)c4c(c3C2=O)C2=NC3(CCN(CC(C)C)CC3)NC2=C(NC(=O)/C(C)=C\C=C\[C@H](C)[C@H](O)[C@@H](C)[C@@H](O)[C@@H](C)[C@H](OC(=O)CCCC(=O)N2CCC(N(C)c3ccccc3)CC2)[C@@H]1C)C4=O (some centres unmarked) [Compound 85]
MIC (M. kansasii (ATCC 12478)): 0.008 µg/mL | MIC (M. avium (ATCC 25291)): 0.25 µg/mL | MIC [1]: 0.5 µg/mL (≈ 0.458 µM) | MIC [2]: 1 µg/mL (≈ 0.916 µM) | MIC [3]: 0.03 µg/mL | MIC (M. xenopi (ATCC 19250)): 0.03 µg/mL | MIC [4]: 1 µg/mL (≈ 0.916 µM) | MIC [5]: 1 µg/mL (≈ 0.916 µM) | MIC [6]: 1 µg/mL (≈ 0.916 µM) | MIC [7]: 0.5 µg/mL (≈ 0.458 µM) | MIC [8, 22]: 0.125 µg/mL

CO[C@H]1/C=C/O[C@@]2(C)Oc3c(C)c(O)c4c(c3C2=O)C2=NC3(CCN(CC(C)C)CC3)NC2=C(NC(=O)/C(C)=C\C=C\[C@H](C)[C@H](O)[C@@H](C)[C@@H](O)[C@@H](C)[C@H](OC(C)=O)[C@@H]1C)C4=O [Rifabutin, rifabutin]
MIC (A. baumannii Arr-2): 0.125 µg/mL | MIC [9]: 4000 µg/mL (≈ 4720 µM) | MIC (M. kansasii (ATCC 12478)): 0.001 µg/mL | MIC [10]: 0.03 µg/mL | MIC [11]: 2 µg/mL | MIC (M. avium (ATCC 25291)): 0.125 µg/mL | MIC [12]: 0.004 µg/mL | MIC [1]: 0.016 µg/mL (≈ 0.0189 µM) | MIC [13]: > 32 µg/mL | MIC [2]: > 16 µg/mL | MIC [3]: ≤ 0.002 µg/mL | MIC (M. xenopi (ATCC 19250)): 0.03 µg/mL | MIC (M. abscessus strains): 2 to 16 µg/mL | MIC ([14]; Acinetobacter baumannii, read-out: A. baumannii MIC in RPMI + FCS, WT): ≤ 0.002 µg/mL | MIC [4]: 8 µg/mL (≈ 9.44 µM) | MIC [15]: 125 µg/mL (≈ 148 µM) | MIC [5]: 16 µg/mL (≈ 18.9 µM) | MIC [6]: 16 µg/mL (≈ 18.9 µM) | MIC [16]: 500 µg/mL (≈ 590 µM) | MIC [7]: 2 µg/mL (≈ 2.36 µM) | MIC [8, 22]: 8 µg/mL | MIC ([8]; read-out: M. abscessus MIC in 7H9 + ADC, abscessus ATCC 19977): 8 µg/mL | MIC [17]: 16 µg/mL | MIC [18]: 4 µg/mL | MIC [19]: 8 µg/mL | MIC [20]: 4 µg/mL (≈ 4.72 µM)

CO[C@H]1/C=C/O[C@@]2(C)Oc3c(C)c(O)c4c(c3C2=O)C(=O)C(N2CCOCC2)=C(NC(=O)/C(C)=C\C=C\[C@H](C)[C@H](O)[C@@H](C)[C@@H](O)[C@@H](C)[C@H](OC(=O)CC(=O)OCC2CCCN(C)C2)[C@@H]1C)C4=O (some centres unmarked) [CGP4832, reference compound]
antibacterial activity against A. baumannii wild type strain [14]: did not exhibit strong activity | activity against A. baumannii with Arr- and RpoB mutation-mediated resistance [21]: lost activity compared with rifabutin

CO[C@H]1/C=C/O[C@@]2(C)Oc3c(C)c(O)c4c(c3C2=O)C2=NC3(CCN(CC(C)C)CC3)NC2=C(NC(=O)/C(C)=C\C=C\[C@H](C)[C@H](O)[C@@H](C)[C@@H](O)[C@@H](C)[C@H](OC(=O)CC(=O)N2CCN(CC3CCCCC3)CC2)[C@@H]1C)C4=O [Compound 98]
MIC (M. kansasii (ATCC 12478)): 0.002 µg/mL | MIC (M. avium (ATCC 25291)): 0.03 µg/mL | MIC [1]: 0.5 µg/mL (≈ 0.474 µM) | MIC [2]: 0.5 µg/mL (≈ 0.474 µM) | MIC [3]: 0.03 µg/mL | MIC (M. xenopi (ATCC 19250)): 0.016 µg/mL | MIC [4]: 0.5 µg/mL (≈ 0.474 µM) | MIC [5]: 0.25 µg/mL (≈ 0.237 µM) | MIC [6]: 0.25 µg/mL (≈ 0.237 µM) | MIC [7]: 0.125 µg/mL (≈ 0.118 µM) | MIC [8, 22]: 0.125 µg/mL

— patent US20250051356A1, “RIFABUTIN ANALOGS FOR THE TREATMENT OF DISEASE” (priority 2021, published 2025)
